Our source for the inhibition values is patent US20170190705A1, “Compositions and Methods for Inhibiting BMP” (THE BRIGHAM AND WOMAN'S HOSPITAL, INC., priority 2014, published 2017).

Where two headings read alike, the source gives them in different places.

Assay type in all cases: biochemical
One test addresses RON (Homo sapiens, UniProt Q04912). Description: Kinome profiling RON. To be noted: read-out: Inhibitory activity RON; for inhibition at 0.1 µM: 100 nM. As to the method: (§1) . The kinome-wide selectivity was determined following the methods previously reported by Mohedas et al., ACS Chem Biol 2013, 8, 1291-1302 and Sanvitale et al., PLoS One 2013, 8, e62721.
The next test deals with LYNA (Homo sapiens, UniProt P07948). Nature of the test: Kinome profiling LYNA. Particulars: read-out: Inhibitory activity LYNA; for inhibition at 0.1 µM: 100 nM. As to the method: as §1
The target in a further test is RET (Homo sapiens, UniProt P07949). Nature of the test: Kinome profiling RET. Particulars: read-out: Inhibitory activity RET; for inhibition at 0.1 µM: 100 nM. As to the method: as §1
In the next test the target is T1, MAP4K2 (Homo sapiens, UniProt Q12851).
T1 sequence (Q12851 1-820): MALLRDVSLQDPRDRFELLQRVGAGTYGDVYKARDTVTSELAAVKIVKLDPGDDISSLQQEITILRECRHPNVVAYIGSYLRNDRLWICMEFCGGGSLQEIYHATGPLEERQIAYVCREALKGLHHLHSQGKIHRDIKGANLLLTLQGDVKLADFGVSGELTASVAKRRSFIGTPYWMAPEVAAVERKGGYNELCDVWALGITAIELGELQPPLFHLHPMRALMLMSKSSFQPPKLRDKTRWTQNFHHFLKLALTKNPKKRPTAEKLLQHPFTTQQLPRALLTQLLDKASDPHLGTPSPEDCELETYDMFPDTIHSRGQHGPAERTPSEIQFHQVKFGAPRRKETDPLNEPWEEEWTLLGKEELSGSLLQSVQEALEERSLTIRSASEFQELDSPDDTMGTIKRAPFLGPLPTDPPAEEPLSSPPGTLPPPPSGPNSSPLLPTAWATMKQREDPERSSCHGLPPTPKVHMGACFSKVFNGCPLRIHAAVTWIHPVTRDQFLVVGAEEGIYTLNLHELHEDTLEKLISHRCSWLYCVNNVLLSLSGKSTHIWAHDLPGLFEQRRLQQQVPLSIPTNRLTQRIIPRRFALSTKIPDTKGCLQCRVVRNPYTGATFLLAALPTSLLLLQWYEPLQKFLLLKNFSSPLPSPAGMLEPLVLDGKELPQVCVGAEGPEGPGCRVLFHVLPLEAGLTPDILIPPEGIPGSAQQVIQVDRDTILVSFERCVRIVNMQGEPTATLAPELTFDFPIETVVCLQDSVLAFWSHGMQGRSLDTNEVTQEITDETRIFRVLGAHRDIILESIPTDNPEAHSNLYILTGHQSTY
Description: Kinome profiling MAP4K2. To be noted: for inhibition at 0.1 µM: 100 nM. As to the method: as §1

In the next test the target is PDGFRβ (Homo sapiens, UniProt P09619). Nature of the test: Kinome profiling PDGFRβ. Particulars: for inhibition at 0.1 µM: 100 nM. As to the method: as §1
Another test has as its target T2, PRKG1 (Homo sapiens, UniProt Q13976).
T2 sequence (Q13976 1-671): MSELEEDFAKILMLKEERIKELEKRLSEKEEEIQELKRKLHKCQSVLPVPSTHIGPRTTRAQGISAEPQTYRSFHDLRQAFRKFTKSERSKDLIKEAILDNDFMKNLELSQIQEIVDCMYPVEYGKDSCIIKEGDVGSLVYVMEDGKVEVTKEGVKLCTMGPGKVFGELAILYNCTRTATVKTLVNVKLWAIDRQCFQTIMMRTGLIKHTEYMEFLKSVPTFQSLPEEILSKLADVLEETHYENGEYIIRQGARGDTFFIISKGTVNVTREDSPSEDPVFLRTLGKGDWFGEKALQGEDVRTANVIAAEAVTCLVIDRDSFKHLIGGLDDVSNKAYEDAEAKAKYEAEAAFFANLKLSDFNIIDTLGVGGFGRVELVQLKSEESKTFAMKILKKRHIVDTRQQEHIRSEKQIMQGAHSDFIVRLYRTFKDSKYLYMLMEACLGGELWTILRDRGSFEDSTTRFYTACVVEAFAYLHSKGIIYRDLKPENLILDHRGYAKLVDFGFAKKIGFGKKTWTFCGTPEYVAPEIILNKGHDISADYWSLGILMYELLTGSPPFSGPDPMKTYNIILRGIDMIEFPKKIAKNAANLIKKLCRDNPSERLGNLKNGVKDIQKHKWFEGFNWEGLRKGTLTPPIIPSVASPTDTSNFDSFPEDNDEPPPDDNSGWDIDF
Description: Kinome profiling PRKG1. To be noted: read-out: Inhibitory activity PRKG1; for inhibition at 0.1 µM: 100 nM. As to the method: as §1

Another test addresses T3, AURORA-C (Homo sapiens, UniProt Q9UQB9).
T3 sequence (Q9UQB9 1-309): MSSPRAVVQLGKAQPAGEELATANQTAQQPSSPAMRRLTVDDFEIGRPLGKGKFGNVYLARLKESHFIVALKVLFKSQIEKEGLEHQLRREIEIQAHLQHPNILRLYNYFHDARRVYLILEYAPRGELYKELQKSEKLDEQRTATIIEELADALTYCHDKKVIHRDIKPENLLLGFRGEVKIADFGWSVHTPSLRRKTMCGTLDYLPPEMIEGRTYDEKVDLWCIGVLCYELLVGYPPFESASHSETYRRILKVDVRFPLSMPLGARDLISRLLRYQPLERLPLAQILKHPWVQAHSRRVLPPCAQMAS
Description: Kinome profiling AURORA-C. Particulars: read-out: Inhibitory activity AURORA-C; for inhibition at 0.1 µM: 100 nM. As to the method:
as §1

For a further test, the target named is CDK2/cyclinA (Homo sapiens, UniProt P24941). Description: Kinome profiling CDK2/cyclinA. Particulars: read-out: Inhibitory activity CDK2/cyclinA; for inhibition at 0.1 µM: 100 nM. As to the method: as §1
The next test concerns the target FYN (Homo sapiens, UniProt P06241). Nature of the test: Kinome profiling FYN. Particulars: read-out: Inhibitory activity FYN; for inhibition at 0.1 µM: 100 nM. How it is done:
as §1

Another test addresses MRCK-α (Homo sapiens, UniProt Q5VT25). Nature of the test: Kinome profiling MRCK-α. To be noted: read-out: Inhibitory activity MRCK-α; for inhibition at 0.1 µM: 100 nM. As to the method:
as §1

[1] abbreviates: Table 4, read-out: Inhibitory Activity MAP4K2.
Where [2] appears, read: read-out: Inhibitory activity MAP4K2.
Setting [3] is: Table 4, read-out: Inhibitory Activity PDGFR-BETA.
Where [4] appears, read: read-out: Inhibitory activity PDGFRβ.

Chain of MRCK-α (Q5VT25 whole entry): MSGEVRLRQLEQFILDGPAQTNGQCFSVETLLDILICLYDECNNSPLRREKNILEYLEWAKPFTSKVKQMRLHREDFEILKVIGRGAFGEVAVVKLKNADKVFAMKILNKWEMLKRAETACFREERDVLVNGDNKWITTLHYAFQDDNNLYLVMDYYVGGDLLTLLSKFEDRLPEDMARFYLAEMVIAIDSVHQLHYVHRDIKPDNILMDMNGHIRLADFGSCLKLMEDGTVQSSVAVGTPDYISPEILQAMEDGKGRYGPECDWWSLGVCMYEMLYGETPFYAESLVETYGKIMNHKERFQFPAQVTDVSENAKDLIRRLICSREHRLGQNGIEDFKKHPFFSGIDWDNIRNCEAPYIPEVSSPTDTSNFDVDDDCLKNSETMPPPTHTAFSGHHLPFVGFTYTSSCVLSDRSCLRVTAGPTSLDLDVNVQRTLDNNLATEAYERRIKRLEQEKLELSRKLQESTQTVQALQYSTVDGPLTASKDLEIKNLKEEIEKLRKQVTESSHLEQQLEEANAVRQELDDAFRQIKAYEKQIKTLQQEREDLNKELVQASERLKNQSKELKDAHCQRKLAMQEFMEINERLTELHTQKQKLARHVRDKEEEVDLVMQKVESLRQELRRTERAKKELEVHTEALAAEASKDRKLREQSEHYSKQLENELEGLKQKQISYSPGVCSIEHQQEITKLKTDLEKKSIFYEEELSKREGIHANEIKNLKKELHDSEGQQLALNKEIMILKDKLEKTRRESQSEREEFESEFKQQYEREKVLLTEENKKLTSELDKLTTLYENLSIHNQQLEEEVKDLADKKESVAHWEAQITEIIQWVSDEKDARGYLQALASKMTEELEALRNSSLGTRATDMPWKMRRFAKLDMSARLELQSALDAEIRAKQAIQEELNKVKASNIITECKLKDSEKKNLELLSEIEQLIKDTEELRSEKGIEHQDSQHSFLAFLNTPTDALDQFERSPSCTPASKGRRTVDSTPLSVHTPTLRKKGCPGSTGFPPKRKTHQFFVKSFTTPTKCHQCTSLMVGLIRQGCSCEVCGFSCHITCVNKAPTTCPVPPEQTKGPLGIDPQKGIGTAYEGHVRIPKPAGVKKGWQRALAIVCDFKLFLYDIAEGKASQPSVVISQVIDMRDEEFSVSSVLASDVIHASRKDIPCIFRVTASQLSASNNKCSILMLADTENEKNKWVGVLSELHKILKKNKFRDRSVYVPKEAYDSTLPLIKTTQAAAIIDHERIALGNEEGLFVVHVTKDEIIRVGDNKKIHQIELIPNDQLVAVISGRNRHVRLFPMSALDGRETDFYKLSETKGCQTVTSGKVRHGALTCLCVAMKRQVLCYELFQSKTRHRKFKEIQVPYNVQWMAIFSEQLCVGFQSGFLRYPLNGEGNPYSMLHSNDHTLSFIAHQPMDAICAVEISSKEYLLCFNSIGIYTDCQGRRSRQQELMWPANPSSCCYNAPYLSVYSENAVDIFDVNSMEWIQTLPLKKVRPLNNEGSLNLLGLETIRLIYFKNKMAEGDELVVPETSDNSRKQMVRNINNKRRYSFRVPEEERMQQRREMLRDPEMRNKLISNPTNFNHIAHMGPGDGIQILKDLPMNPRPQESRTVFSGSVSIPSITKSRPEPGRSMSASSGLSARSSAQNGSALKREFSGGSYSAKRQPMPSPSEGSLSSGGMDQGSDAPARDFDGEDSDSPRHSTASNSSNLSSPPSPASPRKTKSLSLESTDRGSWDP
Chain of RET (P07949 29-1114): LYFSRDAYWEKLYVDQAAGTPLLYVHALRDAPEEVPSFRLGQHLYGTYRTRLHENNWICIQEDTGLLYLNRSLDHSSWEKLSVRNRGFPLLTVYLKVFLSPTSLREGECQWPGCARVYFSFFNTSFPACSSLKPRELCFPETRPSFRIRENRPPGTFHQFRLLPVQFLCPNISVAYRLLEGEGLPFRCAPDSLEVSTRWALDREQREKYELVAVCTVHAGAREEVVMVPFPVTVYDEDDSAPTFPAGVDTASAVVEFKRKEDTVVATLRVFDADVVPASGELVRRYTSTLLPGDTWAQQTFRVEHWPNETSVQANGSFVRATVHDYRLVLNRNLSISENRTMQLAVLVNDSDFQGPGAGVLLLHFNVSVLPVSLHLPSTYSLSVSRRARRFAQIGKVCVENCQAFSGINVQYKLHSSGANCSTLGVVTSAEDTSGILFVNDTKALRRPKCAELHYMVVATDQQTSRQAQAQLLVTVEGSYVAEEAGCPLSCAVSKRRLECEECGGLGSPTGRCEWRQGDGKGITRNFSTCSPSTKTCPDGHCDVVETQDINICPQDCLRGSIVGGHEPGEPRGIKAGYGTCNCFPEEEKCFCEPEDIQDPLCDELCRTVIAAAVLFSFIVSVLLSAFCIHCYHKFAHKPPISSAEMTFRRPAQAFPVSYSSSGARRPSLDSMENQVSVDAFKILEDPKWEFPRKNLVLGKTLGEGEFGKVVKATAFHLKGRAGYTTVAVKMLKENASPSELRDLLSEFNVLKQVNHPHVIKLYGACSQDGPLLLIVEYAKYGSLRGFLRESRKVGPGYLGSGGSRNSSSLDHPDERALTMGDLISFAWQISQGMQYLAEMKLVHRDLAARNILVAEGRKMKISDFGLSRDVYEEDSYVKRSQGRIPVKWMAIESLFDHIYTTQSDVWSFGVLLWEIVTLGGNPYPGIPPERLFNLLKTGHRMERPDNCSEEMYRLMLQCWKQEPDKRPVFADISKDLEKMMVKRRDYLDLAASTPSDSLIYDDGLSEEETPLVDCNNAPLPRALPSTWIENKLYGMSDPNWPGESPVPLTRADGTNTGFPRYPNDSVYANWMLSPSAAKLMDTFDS
Chain of RON (Q04912 25-1400): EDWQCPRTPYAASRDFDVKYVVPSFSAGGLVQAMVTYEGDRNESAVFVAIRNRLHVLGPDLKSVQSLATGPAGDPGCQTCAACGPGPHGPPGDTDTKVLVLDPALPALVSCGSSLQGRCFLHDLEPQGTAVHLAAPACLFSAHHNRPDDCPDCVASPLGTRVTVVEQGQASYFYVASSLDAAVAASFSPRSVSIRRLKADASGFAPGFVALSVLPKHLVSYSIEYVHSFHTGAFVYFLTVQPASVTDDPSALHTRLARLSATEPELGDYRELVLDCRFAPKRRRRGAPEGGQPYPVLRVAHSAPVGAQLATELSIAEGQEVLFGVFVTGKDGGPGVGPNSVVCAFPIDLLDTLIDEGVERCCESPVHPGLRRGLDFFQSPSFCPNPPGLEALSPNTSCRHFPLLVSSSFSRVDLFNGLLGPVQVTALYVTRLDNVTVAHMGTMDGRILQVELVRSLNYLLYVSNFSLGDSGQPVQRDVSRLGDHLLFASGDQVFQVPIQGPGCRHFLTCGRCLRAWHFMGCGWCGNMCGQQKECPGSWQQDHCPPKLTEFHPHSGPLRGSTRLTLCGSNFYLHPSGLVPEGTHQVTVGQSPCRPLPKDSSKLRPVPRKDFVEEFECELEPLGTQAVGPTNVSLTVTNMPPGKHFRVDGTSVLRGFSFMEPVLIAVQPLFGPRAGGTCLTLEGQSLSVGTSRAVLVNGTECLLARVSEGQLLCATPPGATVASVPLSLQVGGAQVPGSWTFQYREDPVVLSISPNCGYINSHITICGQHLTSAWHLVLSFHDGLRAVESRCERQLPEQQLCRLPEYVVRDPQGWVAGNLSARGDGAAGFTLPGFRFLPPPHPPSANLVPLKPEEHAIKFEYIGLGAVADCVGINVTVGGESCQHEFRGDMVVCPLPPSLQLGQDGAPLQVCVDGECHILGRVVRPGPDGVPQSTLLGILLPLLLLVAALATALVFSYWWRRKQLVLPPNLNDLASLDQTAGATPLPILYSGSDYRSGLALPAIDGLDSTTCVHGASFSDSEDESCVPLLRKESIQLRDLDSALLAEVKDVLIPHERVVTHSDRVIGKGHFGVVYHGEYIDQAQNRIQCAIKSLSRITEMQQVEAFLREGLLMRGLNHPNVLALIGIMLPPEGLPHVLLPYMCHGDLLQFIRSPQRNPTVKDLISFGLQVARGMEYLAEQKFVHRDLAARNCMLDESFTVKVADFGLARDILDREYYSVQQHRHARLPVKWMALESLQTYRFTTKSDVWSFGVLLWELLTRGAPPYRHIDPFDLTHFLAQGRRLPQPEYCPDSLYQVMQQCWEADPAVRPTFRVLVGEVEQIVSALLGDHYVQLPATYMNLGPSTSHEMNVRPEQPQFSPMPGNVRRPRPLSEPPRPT
Chain of LYNA (P07948 whole entry): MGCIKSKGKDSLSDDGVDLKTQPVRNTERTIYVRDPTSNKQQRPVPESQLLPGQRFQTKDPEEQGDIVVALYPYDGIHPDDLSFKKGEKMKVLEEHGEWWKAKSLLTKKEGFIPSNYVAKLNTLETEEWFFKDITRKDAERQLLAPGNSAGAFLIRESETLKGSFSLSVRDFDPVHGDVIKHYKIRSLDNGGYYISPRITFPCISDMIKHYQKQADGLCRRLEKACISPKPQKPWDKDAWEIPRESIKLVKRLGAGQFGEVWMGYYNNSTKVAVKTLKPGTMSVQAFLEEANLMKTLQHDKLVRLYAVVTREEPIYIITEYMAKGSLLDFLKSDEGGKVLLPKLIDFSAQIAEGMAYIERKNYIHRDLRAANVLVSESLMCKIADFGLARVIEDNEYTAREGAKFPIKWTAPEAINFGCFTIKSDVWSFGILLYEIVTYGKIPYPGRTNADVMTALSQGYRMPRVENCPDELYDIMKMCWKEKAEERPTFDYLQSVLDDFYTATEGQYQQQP

For the compound `COc1cc(-c2cc(-c3ccc(N4CCNCC4)cc3)cnc2C)cc(OC)c1OC` [Compound 10, 1-(4-(6-methyl-5-(3,4,5-trimethoxyphenyl)pyridin-3-yl)phenyl)piperazine], the inhibition at 0.1 µM stood at 2% at RON; 3% on LYNA; 2% at RET; 16% on MAP4K2 (setting [1]); 16% at MAP4K2 (setting [2]); 17% at PDGFRβ (setting [3]). Further, the inhibition at 0.1 µM was 17% at PDGFRβ (setting [4]); 3% on PRKG1; 1% on AURORA-C; 4% at CDK2/cyclinA; 8% on FYN; -1% on MRCK-α. Further, the inhibition at 1 µM amounted to 6% on RON; 29% at LYNA; 2% at RET; 61% at MAP4K2 (setting [1]); 61% at MAP4K2 (setting [2]); 64% on PDGFRβ (setting [3]). Besides, the inhibition at 1 µM on PDGFRβ (setting [4]) amounted to 64%; on PRKG1, 2%; on AURORA-C, 1%; at CDK2/cyclinA it was 1%; at FYN, 36%; on MRCK-α, 2%.
On to `COc1cc(-c2cc(-c3ccc(N4CCNCC4)cc3)cnc2N)cc(OC)c1OC` [Compound 15, 5-(4-(piperazin-1-yl)phenyl)-3-(3,4,5-trimethoxyphenyl)pyridin-2-amine], for which the inhibition at 0.1 µM on RON turned out to be 3%; on LYNA, 41%; on RET, 8%; on MAP4K2 (setting [2]) it was 36%; on PDGFRβ (setting [4]), 47%; on PRKG1, 0%. For the same compound, the inhibition at 0.1 µM amounted to 3% on AURORA-C, 1% on CDK2/cyclinA, 40% on FYN and 6% on MRCK-α. Further, the inhibition at 1 µM at RON came to 17%; on LYNA, 84%; at RET, 8%; at MAP4K2 (setting [2]), 77%; at PDGFRβ (setting [4]), 77%; at PRKG1, 4%. The inhibition at 1 µM was 7% at AURORA-C, 2% on CDK2/cyclinA, 79% at FYN and 50% at MRCK-α.
